{"source": "patent US20240285555A1", "about": "“COMPOSITIONS FOR THE TREATMENT OF COPPER DEFICIENCY AND METHODS OF USE” (priority 2018, published 2024)", "key": {"[1]": {"system": "Ctr1^−/− H9c2 cardiomyocytes", "assay": "COX1 and SOD1 levels in Ctr1 knockout H9c2 cardiomyocytes (Western blot)", "assay_type": "cell-based, rat", "settings": "5 nM ES", "method": "FIGS. 4A and 4B illustrates the effects of ES supplementation in increasing copper levels (A) and cytochrome c oxidase subunit, COX1, and superoxide dismutase, SOD1 levels (B) in Ctrl1^−/− H9c2 rat cardiomyocytes. ATP5A is a subunit of mitochondrial ATP synthase and was used as a loading control for the Western blotting experiment.\nMammalian Cell Culture. The human control MCH46 and SCO2 patient fibroblasts as well as the rat H9c2 control and Ctr1^−/− cardiomyocytes were cultured in high glucose Dulbecco's modified Eagle's medium (DMEM) supplemented with 10% fetal bovine serum (Sigma) and 1 mM sodium pyruvate (Life Technologies). The mouse embryonic fibroblasts were cultured in DMEM 10% FBS, 1 mM sodium pyruvate, 1× minimum essential medium non-essential amino acids (MEM NEAA; Life Technologies 11140), 50 μg/mL uridine, and 1× Pen Strep Glutamine (Life Technologies 10378). All cell lines were cultured under 5% CO2 at 37° C. and were treated with indicated concentrations of ES for 3-6 days before harvesting. Whole cell protein was extracted in lysis buffer (BP-115, Boston BioProducts) supplemented with protease inhibitor cocktail (Roche Diagnostics) and the protein concentrations were determined by BCA assay (Thermo Scientific).\nConstruction of a Ctr1 Knockout Rat H9c2 Cell Line. […]"}, "[2]": {"system": "Coa6 knockdown zebrafish embryos", "experimental": "Batches of 50 fertilized embryos injected with either translation blocking or mismatch control morpholinos were treated with or without 100 nM ES at 3 hpf, before making observations at the indicated time points (n % 30 for each time point and treatment).\nZebrafish Experiments. […] Wild type AB strain and Ctr1 heterozygous zebrafish were maintained and crossed using standard methods. Embryos were staged and raised in Egg Water at 28.5° C. For drug treatments, embryos from Ctr1 heterozygous crosses were incubated in 10 nM ES diluted in Egg Water beginning at 3 hours post-fertilization (hpf). For imaging live embryos at 48 hpf, representative embryos of each sample were anesthetized in Tricaine and imaging was performed on an Olympus SZX12 stereomicroscope. […] Morpholino-based experiments were performed."}, "[3]": {"system": "sco1Δ cells", "assay": "Respiratory growth rescue of sco1Δ yeast", "assay_type": "cell-based, Saccharomyces cerevisiae", "settings": "non-fermentable media, 37° C.", "method": "(§1) Yeast Strains and Culture Conditions. The authenticity of yeast strains was confirmed by PCR as well as by replica plating on dropout plates. Yeast cells were cultured in standard YP growth media including YPD (1% yeast extract, 2% peptone and 2% glucose), YPGal (2% galactose), YPGE (3% glycerol+1% ethanol), or synthetic media (SC glucose). For qualitative growth measurement, 10-fold serial dilutions of overnight cultures were spotted on YPD or YPGE plates and incubated at 30° C. and 37° C. for the indicated period. Growth in liquid media was measured spectrophotometrically at 600 nm.\n(§2) ES Rescues Many Different Yeast Mutants with Impaired Copper Metabolism. To test the specificity of ES mediated rescue, a number of yeast mutants of genes required for maintaining cellular and mitochondrial copper homeostasis were shortlisted. Genes were prioritized based on their evolutionary conservation, presence of pathogenic mutations in humans, and/or the existence of a related mouse phenotype (Table 3, shown below). […] Most of the yeast mutants were rescued with ES supplementation, albeit to different degrees, reflecting their distinct roles in cellular and mitochondrial copper homeostasis."}, "[4]": {"system": "zebrafish embryos", "assay": "Survival of zebrafish embryos treated with ES, copper and combinations", "assay_type": "in vivo", "source_text": "NT, No treatment; ES, Elesclomol."}, "[5]": {"system": "BY4741 WT cells", "assay": "Respiratory growth of wild type yeast with copper chelator BCS", "assay_type": "cell-based, Saccharomyces cerevisiae", "settings": "10 nM ES co-treatment with 20 μM BCS", "experimental": "The cell density was measured spectrophotoretrically at the indicated time points at 600 nm. The data are representative of two independent experiments."}, "[6]": {"system": "Ctr1^−/− zebrafish", "assay": "Cox1 levels in mitochondrial extracts of Ctr1 mutant zebrafish", "assay_type": "in vivo", "settings": "grown in the presence of ES until 10 dpf", "method": "Zebrafish Experiments. […] Morpholino-based experiments were performed.\nES Supplementation Rescues Copper Deficiency Phenotypes in Zebrafish Models. To determine whether ES can rescue phenotypes associated with copper deficiency in an intact developing vertebrate animal model, zebrafish embryos with a null mutation in the gene encoding the plasma membrane copper importer Ctr1 were utilized. Zebrafish were chosen because of the ability to quickly monitor the pigmentation defect that arises due to the copper requirement of tyrosinase, an enzyme that catalyzes the critical step in melanin biosynthesis. Wild type zebrafish embryos have a characteristic melanin pigmentation pattern visible at 48 hpf. To determine if ES can rescue copper deficiency phenotypes in zebrafish, zebrafish embryos from heterozygous Ctr1 crosses in 10 nM ES were incubated and compared to untreated embryos. […] To determine whether ES can rescue the observed CcO assembly defect, clutches of embryos were grown from heterozygous Ctr1 crosses in the presence of ES until 10 dpf and levels of Cox1 in their mitochondrial extracts were measured."}, "[7]": {"system": "ctr1Δ cells", "assay": "Respiratory growth rescue of ctr1Δ yeast", "assay_type": "cell-based, Saccharomyces cerevisiae", "settings": "non-fermentable media, 37° C.", "method": "as §1, §2"}}, "data": [{"molecule": "CN(NC(=O)CC(=O)NN(C)C(=S)c1ccccc1)C(=S)c1ccccc1", "note": "[ES, elesclomol]", "values": [{"measurement": "levels of COX1 and SOD1", "setting": "[1]", "value": "restores"}, {"measurement": "pericardial edema", "setting": "[2]; 100 nM ES", "value": "prevented pericardial edema"}, {"measurement": "rescue of morphological phenotype score", "setting": "[2]; 100 nM ES at 3 hpf, scored at 24, 48, 72, 96 hpf", "value": "rescue with 100 nM ES treatment was observed as early as 48 hpf"}, {"measurement": "heart rate of Coa6 knockdown embryos", "setting": "[2]; 100 nM ES, 72 and 96 hpf", "value": "significantly increased the heart rate"}, {"measurement": "rescue of respiratory growth", "setting": "[3]", "value": "failed to rescue"}, {"measurement": "lethality", "setting": "[4]; co-supplementation of 100 nM ES with 100 nM of copper", "value": 100, "unit": "%"}, {"measurement": "maximal tolerable dose", "setting": "[4]; zebrafish embryos", "value": 100, "unit": "nM"}, {"measurement": "rescue of BCS-reduced respiratory growth", "setting": "[5]", "value": "rescued"}, {"measurement": "Cox1 levels in mitochondrial extracts", "setting": "[6]", "value": "almost completely rescued"}, {"measurement": "rescue of respiratory growth", "setting": "[7]", "value": "higher concentration of ES is required to rescue"}]}]}
